The record followed here is US12544375B2, “Small molecule therapeutic for parkinson's disease paired with a biomarker of therapeutic activity” (The Board of Trustees of the Leland Stanford Junior …, priority 2019, dated 2026).

For the experiment, the system named is LRRK2^G2019S, PINK1 null and SNCA^A53T flies. As to the kind of experiment: Adult fly climbing ability (negative geotaxis). In kind it is in vivo. Conditions: 2.5 μM in food, two models (LRRK2 and PINK1). The protocol: FIG. 4A-FIG. 4I. Miro1 Reducer Rescues PD-Relevant Phenotypes in Flies. For all panels, when Miro1 Reducer was not added, the same volume of the solvent, DMSO, was supplied in fly food. Drug administration (2.5 μM) was started from day 2. (FIG. 4A-FIG. 4C) Survival curves of LRRK2^G2019S (FIG. 4A), PINK1^B9 (imprecise excision, null) and PINK1^RV (the precise excision control for PINK1^B9) (FIG. 4B), and SNCA^A53T flies (FIG. 4C). n=58-150. (FIG. 4D) Dopaminergic (DA) neurons in the PPM1/2 clusters of 22-day old flies were immunostained with anti-TH. (FIG. 4D-FIG. 4F) Quantification of the DA neuron number in the PPL1 or PPM1/2 cluster (total number divided by 2 for each brain). (FIG. 4D) LRRK2^G2019S. n=6-8 brains. […]
Fly climbing (negative geotaxis) ability was evaluated as previously described. Briefly, adult flies were gently tapped to the base of a modified 25 ml climbing tube and their climbing progress was recorded after 45 sec. Three populations of flies were assessed, and for each population, flies were examined 3 times per experiment. The recorded values were used to calculate Average Performance Index (PI). […] If the fly flew away, it was recorded as “1”, and if it was unable to fly, it was recorded as “0”. Wing posture was assessed by viewing each fly through a vial under a dissecting microscope. […] A normal wing posture or thorax (Course et al., 2018) was scored as “1”, otherwise “0”. […]

Turning to `O=C(Nc1ccc(Nc2cc(-n3ccnc3)ncn2)cc1)Nc1cccc(F)c1` [Miro1 Reducer], the “locomotor decline (climbing ability)” value was “significantly rescued”.
